Experimental data published in ChEMBL document CHEMBL1201862, “PubChem BioAssay data set” (2004).
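Exposure lasted 48 hours, with cells grown in 96-well plates and compounds tested at five concentrations. GI50 marks 50% less growth.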 Activity calls are given as the source filed them. Cut-off read from the data, not from the text of the source: active = GI50 up to about 1.1 µM and inactive = higher.

Experiments:
Assay in all cases: NCI tumour cell line growth inhibition, 48 h
NCI/ADR-RES = system: NCI/ADR-RES
OVCAR-5 = system: OVCAR-5
SK-MEL-2 = system: SK-MEL-2
HCT-116 = system: HCT-116
786-0 = system: 786-0
MCF7 = system: MCF7
PC-3 = system: PC-3
SF-539 = system: SF-539
CAKI-1 = system: CAKI-1
OVCAR-4 = system: OVCAR-4
SNB-19 = system: SNB-19
K562 = system: K562
SW-620 = system: SW-620
SN12C = system: SN12C
ACHN = system: ACHN
HT-29 = system: HT-29
MOLT-4 = system: MOLT-4
SK-MEL-28 = system: SK-MEL-28
KM12 = system: KM12
U-251 = system: U-251

| SMILES | GI50 (NCI/ADR-RES) | GI50 (OVCAR-5) | GI50 (SK-MEL-2) | GI50 (HCT-116) | GI50 (786-0) | GI50 (MCF7) | GI50 (PC-3) | GI50 (SF-539) | GI50 (CAKI-1) | GI50 (OVCAR-4) | GI50 (SNB-19) | GI50 (K562) | GI50 (SW-620) | GI50 (SN12C) | GI50 (ACHN) | GI50 (HT-29) | GI50 (MOLT-4) | GI50 (SK-MEL-28) | GI50 (KM12) | GI50 (U-251) |
| --- | --- | --- | --- | --- | --- | --- | --- | --- | --- | --- | --- | --- | --- | --- | --- | --- | --- | --- | --- | --- |
| O=c1cc(-c2ccccc2)oc2ccc(-c3ccc4oc(-c5ccccc5)cc(=O)c4c3)cc12 | 16.8 µM (inactive) | 27.6 µM (inactive) | 18.2 µM (inactive) | 15.9 µM (inactive) | 28.4 µM (inactive) | 18.8 µM (inactive) | > 10 µM (inactive) | 15.6 µM (inactive) | 16.6 µM (inactive) | 19.3 µM (inactive) | 6.82 µM (inactive) | 14.2 µM (inactive) | 30.5 µM (inactive) | > 10 µM (inactive) | 20.5 µM (inactive) | 30.9 µM (inactive) | 11.2 µM (inactive) | – | – | – |
| COc1ccc(/C(=N/O)c2ccccc2C2=Nc3ccccc3C(NCc3ccccc3)O2)cc1C (centres undefined) | 41.8 µM (inactive) | 33.8 µM (inactive) | 32.7 µM (inactive) | 25.8 µM (inactive) | 44.3 µM (inactive) | 29.2 µM (inactive) | 17.3 µM (inactive) | 96.2 µM (inactive) | 56.2 µM (inactive) | – | 36.6 µM (inactive) | 16.7 µM (inactive) | 21.8 µM (inactive) | 22.9 µM (inactive) | 38 µM (inactive) | 25.1 µM (inactive) | 29.5 µM (inactive) | 44.1 µM (inactive) | 46.2 µM (inactive) | 30.5 µM (inactive) |
| O=C(CNc1ccc(Cl)cc1Cl)Nn1c(-c2ccccc2)nc2ccccc2c1=O | 20.3 µM (inactive) | 23 µM (inactive) | – | 16.7 µM (inactive) | 16.8 µM (inactive) | 13.4 µM (inactive) | 14.9 µM (inactive) | 19.6 µM (inactive) | – | 13.9 µM (inactive) | 18.5 µM (inactive) | 10.2 µM (inactive) | 16.2 µM (inactive) | 16.1 µM (inactive) | 17.6 µM (inactive) | 16.1 µM (inactive) | 5.14 µM (inactive) | 21.1 µM (inactive) | > 10 µM (inactive) | > 10 µM (inactive) |
| CCOC(=O)Cc1ccc(Nc2nc3ccccc3nc2C(=O)OCC)cc1 | 50.7 µM (inactive) | > 100 µM (inactive) | 94 µM (inactive) | > 100 µM (inactive) | 34 µM (inactive) | 61.7 µM (inactive) | 62.5 µM (inactive) | 37.1 µM (inactive) | 83.6 µM (inactive) | 77.1 µM (inactive) | 11.2 µM (inactive) | – | > 100 µM (inactive) | > 100 µM (inactive) | 53.5 µM (inactive) | > 100 µM (inactive) | > 100 µM (inactive) | > 100 µM (inactive) | > 100 µM (inactive) | 51.3 µM (inactive) |
| COc1c(-c2ccc(F)cc2)oc2c(CC(=O)O)cccc2c1=O | > 100 µM (inactive) | > 100 µM (inactive) | > 100 µM (inactive) | > 100 µM (inactive) | > 100 µM (inactive) | > 100 µM (inactive) | > 100 µM (inactive) | > 100 µM (inactive) | 22.3 µM (inactive) | – | – | > 100 µM (inactive) | – | > 100 µM (inactive) | > 100 µM (inactive) | > 100 µM (inactive) | > 100 µM (inactive) | – | – | > 100 µM (inactive) |
| COc1cc2c(c(OC)c1O)-c1ccc(OC)c(=O)cc1[C@@H](NC(=O)C(F)(F)F)CC2 | 3.72 µM (inactive) | – | 0.0282 µM (active) | 0.0474 µM (active) | 0.327 µM (active) | 0.0441 µM (active) | 0.0706 µM (active) | 0.0243 µM (active) | 0.405 µM (active) | > 26.1 µM (inactive) | 0.0975 µM (active) | – | 0.0376 µM (active) | 2.52 µM (inactive) | 0.745 µM (active) | 0.0333 µM (active) | – | – | 0.0482 µM (active) | 0.324 µM (active) |
| COC(=O)CSSCc1ccc([N+](=O)[O-])cc1 | 20.9 µM (inactive) | 19.4 µM (inactive) | 18.1 µM (inactive) | 12.2 µM (inactive) | 19 µM (inactive) | 7.33 µM (inactive) | 28.1 µM (inactive) | 18.2 µM (inactive) | 2.23 µM (inactive) | – | 26.8 µM (inactive) | 29.6 µM (inactive) | 12.2 µM (inactive) | 14.8 µM (inactive) | 16.3 µM (inactive) | 19.5 µM (inactive) | 3.93 µM (inactive) | 18 µM (inactive) | 15.1 µM (inactive) | 12.3 µM (inactive) |
| COC(=O)NC1C(C)OC(OC2C/C=C(/C)C3C=CC4C(OC5CC(OC6CC(OC7CC(O)C(O)C(C)O7)C(OC7CC(O)C(OC)C(C)O7)C(C)O6)C(O)C(C)O5)C(C)CC(C)C4C3(C)C(=O)C3=C(O)C4(CC(C)C(CO)=CC4/C=C\2C)OC3=O)CC1(C)[N+](=O)[O-] (centres undefined) | 38.7 µM (inactive) | 16.9 µM (inactive) | 11.6 µM (inactive) | 1.59 µM (inactive) | 2.44 µM (inactive) | 11.7 µM (inactive) | 16.3 µM (inactive) | 17.8 µM (inactive) | 16 µM (inactive) | 17.5 µM (inactive) | 21.2 µM (inactive) | – | 5.24 µM (inactive) | 11.7 µM (inactive) | 11.6 µM (inactive) | 7.83 µM (inactive) | 6.15 µM (inactive) | 8.34 µM (inactive) | 6.7 µM (inactive) | 3.84 µM (inactive) |
| c1cc(-c2csc(-c3ccsc3)c2)cs1 | > 100 µM (inactive) | 88.9 µM (inactive) | – | > 100 µM (inactive) | > 100 µM (inactive) | 20.3 µM (inactive) | 58.9 µM (inactive) | 36.5 µM (inactive) | > 100 µM (inactive) | > 100 µM (inactive) | 53.1 µM (inactive) | > 100 µM (inactive) | > 100 µM (inactive) | > 100 µM (inactive) | > 100 µM (inactive) | > 100 µM (inactive) | > 100 µM (inactive) | > 100 µM (inactive) | 63.4 µM (inactive) | > 100 µM (inactive) |
| C=CCN1C(=O)C[C@H](Cc2ccccc2)NC(=O)C[C@H](Cc2ccccc2)N(CC=C)C(=O)C[C@H](Cc2ccccc2)NC(=O)C[C@@H]1Cc1ccccc1 | 4.37 µM (inactive) | > 100 µM (inactive) | 6.73 µM (inactive) | 14.8 µM (inactive) | 47.8 µM (inactive) | 4.04 µM (inactive) | 3.1 µM (inactive) | 46.1 µM (inactive) | 5.15 µM (inactive) | 4.6 µM (inactive) | > 100 µM (inactive) | 3.45 µM (inactive) | 62.7 µM (inactive) | 5.7 µM (inactive) | – | 5.19 µM (inactive) | 2.69 µM (inactive) | 61.9 µM (inactive) | 26 µM (inactive) | 12.9 µM (inactive) |
| COc1cc2c(cc1OC)C(=O)N(c1ccc(O)cc1)C2=O | > 100 µM (inactive) | > 100 µM (inactive) | > 100 µM (inactive) | > 100 µM (inactive) | > 100 µM (inactive) | < 0.01 µM (active) | > 100 µM (inactive) | > 100 µM (inactive) | > 100 µM (inactive) | > 100 µM (inactive) | > 100 µM (inactive) | > 100 µM (inactive) | > 100 µM (inactive) | > 100 µM (inactive) | > 100 µM (inactive) | > 100 µM (inactive) | > 100 µM (inactive) | > 100 µM (inactive) | – | > 100 µM (inactive) |
| O=C1C(Sc2ccc3ccccc3c2)=C(Sc2ccc3ccccc3c2)C(=O)c2ccccc21 | 13.2 µM (inactive) | 11.3 µM (inactive) | 5.53 µM (inactive) | 7.59 µM (inactive) | 12.7 µM (inactive) | 11.2 µM (inactive) | 14.4 µM (inactive) | 10.2 µM (inactive) | – | 3.47 µM (inactive) | 8.09 µM (inactive) | 3.47 µM (inactive) | 4.8 µM (inactive) | 12.1 µM (inactive) | 4.55 µM (inactive) | 15.6 µM (inactive) | 2.32 µM (inactive) | 15.2 µM (inactive) | – | 6.21 µM (inactive) |
| Cc1nn2c(N)cc(=O)nc2nc1/C=C/c1ccc(N(C)C)cc1 | > 100 µM (inactive) | 17.5 µM (inactive) | > 49.2 µM (inactive) | 12 µM (inactive) | > 28.8 µM (inactive) | 3.92 µM (inactive) | > 100 µM (inactive) | – | 3.45 µM (inactive) | > 26.5 µM (inactive) | 29.9 µM (inactive) | 9.08 µM (inactive) | > 100 µM (inactive) | > 65.6 µM (inactive) | 18 µM (inactive) | 4.76 µM (inactive) | > 52 µM (inactive) | > 84.5 µM (inactive) | > 28.8 µM (inactive) | > 22.1 µM (inactive) |
| N#CCCN(C(=O)Nc1ccc(NC(=O)N(CCC#N)c2ccccc2)cc1)c1ccccc1 | > 100 µM (inactive) | > 100 µM (inactive) | > 100 µM (inactive) | > 100 µM (inactive) | > 100 µM (inactive) | > 100 µM (inactive) | > 100 µM (inactive) | – | > 100 µM (inactive) | > 100 µM (inactive) | > 100 µM (inactive) | > 100 µM (inactive) | > 100 µM (inactive) | > 100 µM (inactive) | > 100 µM (inactive) | > 100 µM (inactive) | > 100 µM (inactive) | > 100 µM (inactive) | > 100 µM (inactive) | > 100 µM (inactive) |
| COC(=O)CCC1(C)C2CCC1(C)/C(=N/O)C2 (centres undefined) | > 100 µM (inactive) | > 100 µM (inactive) | > 100 µM (inactive) | > 100 µM (inactive) | > 100 µM (inactive) | > 100 µM (inactive) | > 100 µM (inactive) | – | > 100 µM (inactive) | > 100 µM (inactive) | > 100 µM (inactive) | > 100 µM (inactive) | > 100 µM (inactive) | > 100 µM (inactive) | > 100 µM (inactive) | > 100 µM (inactive) | > 100 µM (inactive) | > 100 µM (inactive) | > 100 µM (inactive) | > 100 µM (inactive) |
